Laboratory results from the NIST ThermoML archive (doi:10.1021/acs.jced.5b00934).

Conditions: Liquid, Vibrating tube method

CC(C)(C)O [2-methylpropan-2-ol]
Conditions | mass density [kg/m3]
333.15 K, 50000 kPa | 788.7
333.15 K, 52050 kPa | 790.2
333.15 K, 55010 kPa | 792.3
333.15 K, 57996 kPa | 794.3
333.15 K, 60003 kPa | 795.6
338.15 K, 100 kPa | 737.1
338.15 K, 309 kPa | 737.3
338.15 K, 505 kPa | 737.6
338.15 K, 898 kPa | 738.1
338.15 K, 1003 kPa | 738.2
338.15 K, 2001 kPa | 739.5
338.15 K, 3005 kPa | 740.8
338.15 K, 5003 kPa | 743.2
338.15 K, 7014 kPa | 745.6
338.15 K, 9004 kPa | 747.9
338.15 K, 10002 kPa | 749
338.15 K, 11998 kPa | 751.2
338.15 K, 14999 kPa | 754.4
338.15 K, 17997 kPa | 757.5
338.15 K, 20007 kPa | 759.4
338.15 K, 21999 kPa | 761.4
338.15 K, 25000 kPa | 764.2
338.15 K, 27994 kPa | 766.9
338.15 K, 30011 kPa | 768.6
338.15 K, 32005 kPa | 770.4
338.15 K, 32998 kPa | 771.2
338.15 K, 33033 kPa | 771.2
338.15 K, 34007 kPa | 772
338.15 K, 35000 kPa | 772.9
338.15 K, 38031 kPa | 775.3
338.15 K, 40024 kPa | 776.9
338.15 K, 41998 kPa | 778.5
338.15 K, 43195 kPa | 779.4
338.15 K, 44574 kPa | 780.4
338.15 K, 46152 kPa | 781.6
338.15 K, 48333 kPa | 783.3
338.15 K, 50050 kPa | 784.5
338.15 K, 52462 kPa | 786.3
338.15 K, 56690 kPa | 789.2
338.15 K, 60003 kPa | 791.5
343.15 K, 99 kPa | 731
343.15 K, 305 kPa | 731.3
343.15 K, 503 kPa | 731.6
343.15 K, 901 kPa | 732.1
343.15 K, 1002 kPa | 732.2
343.15 K, 2000 kPa | 733.6
343.15 K, 3001 kPa | 734.9
343.15 K, 5005 kPa | 737.5
343.15 K, 7004 kPa | 740
343.15 K, 9033 kPa | 742.4
343.15 K, 10020 kPa | 743.6
343.15 K, 12001 kPa | 745.8
343.15 K, 15002 kPa | 749.1
343.15 K, 18001 kPa | 752.3
343.15 K, 20018 kPa | 754.4
343.15 K, 21994 kPa | 756.4
343.15 K, 25026 kPa | 759.3
343.15 K, 27993 kPa | 762.1
343.15 K, 30004 kPa | 763.9
343.15 K, 32000 kPa | 765.7
343.15 K, 32963 kPa | 766.6
343.15 K, 33001 kPa | 766.6
343.15 K, 34002 kPa | 767.5
343.15 K, 35003 kPa | 768.3
343.15 K, 38027 kPa | 770.8
343.15 K, 39998 kPa | 772.5
343.15 K, 42000 kPa | 774.1
348.15 K, 98 kPa | 725.1
348.15 K, 295 kPa | 725.3
348.15 K, 498 kPa | 725.7
348.15 K, 898 kPa | 726.2
348.15 K, 1004 kPa | 726.4
348.15 K, 2006 kPa | 727.8
348.15 K, 3001 kPa | 729.2
348.15 K, 5005 kPa | 731.9
348.15 K, 6999 kPa | 734.5
348.15 K, 9012 kPa | 737
348.15 K, 10014 kPa | 738.2
348.15 K, 12003 kPa | 740.6
348.15 K, 14999 kPa | 744
348.15 K, 17999 kPa | 747.3
348.15 K, 20000 kPa | 749.4
348.15 K, 21998 kPa | 751.5
348.15 K, 24996 kPa | 754.4
348.15 K, 27995 kPa | 757.3
348.15 K, 30045 kPa | 759.3
348.15 K, 32000 kPa | 761
348.15 K, 32878 kPa | 761.8
348.15 K, 33012 kPa | 761.9
348.15 K, 34000 kPa | 762.8
348.15 K, 35001 kPa | 763.7
348.15 K, 38001 kPa | 766.3
348.15 K, 39999 kPa | 768
348.15 K, 41997 kPa | 769.6
348.15 K, 44999 kPa | 772
353.15 K, 99 kPa | 719
353.15 K, 300 kPa | 719.3
353.15 K, 501 kPa | 719.6
353.15 K, 897 kPa | 720.2
353.15 K, 1000 kPa | 720.3
353.15 K, 2000 kPa | 721.8
353.15 K, 2999 kPa | 723.2
353.15 K, 4999 kPa | 726.1
353.15 K, 6999 kPa | 728.8
353.15 K, 8998 kPa | 731.4
353.15 K, 10003 kPa | 732.6
353.15 K, 11997 kPa | 735.1
353.15 K, 15001 kPa | 738.7
353.15 K, 17999 kPa | 742.1
353.15 K, 20000 kPa | 744.2
353.15 K, 21999 kPa | 746.4
353.15 K, 24997 kPa | 749.4
353.15 K, 27999 kPa | 752.5
353.15 K, 30004 kPa | 754.4
353.15 K, 32003 kPa | 756.3
353.15 K, 32985 kPa | 757.1
353.15 K, 33002 kPa | 757.2
353.15 K, 34000 kPa | 758.1
353.15 K, 35004 kPa | 759
353.15 K, 38477 kPa | 762.2
353.15 K, 40002 kPa | 763.4
353.15 K, 42035 kPa | 765.1
353.15 K, 45022 kPa | 767.6
353.15 K, 48092 kPa | 770.1
353.15 K, 49989 kPa | 771.5
358.15 K, 103 kPa | 712.8
358.15 K, 293 kPa | 713.1
358.15 K, 498 kPa | 713.4
358.15 K, 899 kPa | 714
358.15 K, 1003 kPa | 714.2
358.15 K, 2008 kPa | 715.7
358.15 K, 3003 kPa | 717.3
358.15 K, 5003 kPa | 720.2
358.15 K, 7003 kPa | 723
358.15 K, 9001 kPa | 725.8
358.15 K, 9998 kPa | 727.1
358.15 K, 12010 kPa | 729.7
358.15 K, 14999 kPa | 733.3
358.15 K, 18040 kPa | 736.9
358.15 K, 19997 kPa | 739.1
358.15 K, 21995 kPa | 741.3
358.15 K, 25017 kPa | 744.5
358.15 K, 27994 kPa | 747.6
358.15 K, 29991 kPa | 749.6
358.15 K, 32001 kPa | 751.5
358.15 K, 32997 kPa | 752.5
358.15 K, 33015 kPa | 752.5
358.15 K, 34056 kPa | 753.5
358.15 K, 35075 kPa | 754.4
358.15 K, 37998 kPa | 757
358.15 K, 40001 kPa | 758.8
358.15 K, 42007 kPa | 760.6
358.15 K, 45002 kPa | 763.1
358.15 K, 47995 kPa | 765.5
358.15 K, 50001 kPa | 767
363.15 K, 299 kPa | 706.4
363.15 K, 502 kPa | 706.8
363.15 K, 901 kPa | 707.4
363.15 K, 1002 kPa | 707.6
363.15 K, 2001 kPa | 709.2
363.15 K, 3005 kPa | 710.8
363.15 K, 5002 kPa | 713.9
363.15 K, 7023 kPa | 716.9
363.15 K, 9001 kPa | 719.7
363.15 K, 10009 kPa | 721.1
363.15 K, 12038 kPa | 723.8
363.15 K, 14998 kPa | 727.6
363.15 K, 18000 kPa | 731.3
363.15 K, 20033 kPa | 733.7
363.15 K, 22005 kPa | 735.9
363.15 K, 25000 kPa | 739.2
363.15 K, 28009 kPa | 742.4
363.15 K, 30011 kPa | 744.4
363.15 K, 32033 kPa | 746.5
363.15 K, 32982 kPa | 747.4
363.15 K, 33012 kPa | 747.4
363.15 K, 34035 kPa | 748.4
363.15 K, 34999 kPa | 749.3
363.15 K, 37998 kPa | 752.1
363.15 K, 39147 kPa | 753.2
363.15 K, 40009 kPa | 753.9
363.15 K, 41998 kPa | 755.7
363.15 K, 44999 kPa | 758.4
363.15 K, 47996 kPa | 760.9
363.15 K, 49998 kPa | 762.5
363.15 K, 52002 kPa | 764.2
363.15 K, 55003 kPa | 766.6
363.15 K, 57998 kPa | 768.9
363.15 K, 59999 kPa | 770.4
363.16 K, 38458 kPa | 752.5
